Source: publication PMC4252588 (FEBS letters, 2014)
Read-outs that look alike come from different tables or passages of the source.

Assays:
Tulahuen CYP51 [1] = target: T1, Tulahuen CYP51 (Trypanosoma cruzi, UniProt Q7Z1V1); assay: Reconstituted CYP51 activity assay, eburicol 14α-demethylation; format: biochemical
Tulahuen CYP51 [2] = target: Tulahuen CYP51 (Trypanosoma cruzi, UniProt Q7Z1V1, A9G); assay: Type 1 spectral response, substrate binding
Y-CYP51A [3] = target: T2, Y-CYP51A (Trypanosoma cruzi, UniProt Q7Z1V1, P355S); assay: Type 1 spectral response, substrate binding
Y-CYP51A [4] = target: T2, Y-CYP51A; assay: Reconstituted CYP51 activity assay, eburicol 14α-demethylation; format: biochemical
Tulahuen CYP51 [5] = target: T1, Tulahuen CYP51; conditions: Tulahuen T. cruzi CYP51; cited from earlier work
T. brucei CYP51 = conditions: cited from earlier work
[6] = test system: Y strain T. cruzi amastigotes; assay: Cellular infection assay, human stage; format: cell-based, Trypanosoma cruzi
[7] = test system: Y strain T. cruzi epimastigotes; assay: Insect stage; format: cell-based, Trypanosoma cruzi; conditions: insect stage of Y T. cruzi; 1 µM
L. infantum CYP51 = conditions: cited from earlier work
Y-CYP51A [8] = target: T2, Y-CYP51A; assay: Type 2 spectral response titration with inhibitors; format: binding; conditions: calculated from the Y-CYP51A titration curves; [P450] 0.4 µM
[9] = test system: Tulahuen strain of T. cruzi; conditions: mice infected with Tulahuen strain; cited from earlier work
Tulahuen T. cruzi = conditions: cells infected by Tulahuen T. cruzi; cited from earlier work
[10] = Tulahuen CYP51, inhibitor/enzyme/substrate 1:1:100, 1 h

C=C(CCC(C)C1CCC2(C)C3=C(CCC12C)C1(C)CCC(O)C(C)(C)C1CC3)C(C)C (stereo not drawn) [Substrate, eburicol]
Turnover number (Tulahuen CYP51 [1]; Tulahuen CYP51): 5.6±0.3 nmol substrate/nmol P450 /min
Kd (Tulahuen CYP51 [2]): 0.8 µM
ΔA (% low-to-high spin transition) (Tulahuen CYP51 [2]; Tulahuen CYP51): 36%
Kd (Y-CYP51A [3]): 1.54 µM
ΔA (% low-to-high spin transition) (Y-CYP51A [3]; Y-CYP51A): 48%
Turnover number (Y-CYP51A [4]): 2.0±0.2 nmol substrate/nmol P450 /min

O=C(N[C@@H](Cn1ccnc1)c1ccc(-c2ccc(F)cc2)cc1F)c1ccc(-c2nnc(-c3ccccc3)o2)cc1 [VFV, (R)-N-(1-(3,4'-difluorobiphenyl-4-yl)-2-(1H-imidazol-1-yl)ethyl)-4-(5-phenyl-1,3,4-oxadiazol-2-yl)benzamide]
Inhibitory potency (Tulahuen CYP51 [5]): equally potent
Inhibitory potency (T. brucei CYP51): equally potent
Inhibition at I/E/S molar ratio 1:1:100, one hour reaction (Tulahuen CYP51 [1]; [10]): 100%
Antiparasitic potency compared with VNI ([6]; human stage of Y T. cruzi, H9C2 cells, 48 h): higher antiparasitic potency
Antiparasitic potency compared with VNI [7]: higher antiparasitic potency
Inhibitory potency (L. infantum CYP51): equally potent
Apparent binding efficiency (Y-CYP51A [8]): 87

O=C(N[C@@H](Cn1ccnc1)c1ccc(Cl)cc1Cl)c1ccc(-c2nnc(-c3ccccc3)o2)cc1 [VNI, (R)-N-(1-(2,4-dichlorophenyl)-2-(1H-imidazol-1-yl)ethyl)-4-(5-phenyl-1,3,4-oxadiazol-2-yl)benzamide]
Inhibition at I/E/S molar ratio 1:1:100, one hour reaction (Tulahuen CYP51 [1]): 100%
Inhibition of the enzyme (Tulahuen CYP51 [1]): completely inhibited
Outcome of treatment [9]: cure both the acute and chronic models of Chagas disease
EC50 ([6]; Trypanosoma cruzi, Vero, in Homo sapiens): > 0.005 µM
Amastigotes within host cells after treatment ([6]; cardiomyoblasts and Vero cells, up to 1 µM): some trace of amastigotes being observed
Concentration that completely eradicates the parasite (Tulahuen T. cruzi): 8 nM
EC50 (Tulahuen T. cruzi): 0.0013 µM
Apparent binding efficiency (Y-CYP51A [8]): 9

O=C(N[C@@H](Cn1cncn1)c1ccc(Cl)cc1Cl)c1ccc(-c2nnc(-c3ccccc3)o2)cc1 [VNT, (R)-N-(1-(2,4-dichlorophenyl)-2-(1H-1,2,4-triazol-1-yl)ethyl)-4-(5-phenyl-1,3,4-oxadiazol-2-yl)benzamide]
Inhibitory potency (Tulahuen CYP51 [5]): as potent as VNI
Inhibitory potency (T. brucei CYP51): weaker inhibitory effect
Inhibition of the enzyme (Tulahuen CYP51 [1]; Tulahuen CYP51, equimolar amounts of inhibitor): completely inhibited
Inhibition at I/E/S molar ratio 1:1:100, one hour reaction (Tulahuen CYP51 [1]; [10]): 100%
Inhibitory potency (L. infantum CYP51): weaker inhibitory effect
Apparent binding efficiency (Y-CYP51A [8]): 2
